Consider 26 compounds from patent publication US8975279B2, “Amine salts of laquinimod” (Teva Pharmaceutical Industries, Ltd., priority 2012, dated 2015).

≈ marks a conversion by molar mass, not a printed value. Where “and” joins values, the source holds several entries; their conditions need not be identical. Equal entries are not always repeated. Entries after “also recorded” stand apart in the source; their conditions may differ. Structures can show the parent of a compound that is named as a salt. Where two headings read alike, the source gives them in different places. Marks after values point to notes of the source that are not given here.

Data set [1] can be described thus: Aqueous solubility of laquinimod and its salts. The format is physicochemical. The note with it: for Aqueous solubility: water.
Data set [2] in a line: Physical stability in glass vials at +5° C., air atmosphere. The format is physicochemical. As to conditions: for Sample appearance: glass vials, air atmosphere.
A short description of data set [3]: Physical stability on exposure to atmospheric air at room temperature. The format is physicochemical.
The conditions of data set [4]: cited from earlier work.
The conditions of data set [5]: existing sodium salt; U.S. Pat. No. 7,589,208; cited from earlier work.
[6] abbreviates: +5° C., after 10 months of storage.
Where [7] appears, read: sealed transparent glass vials at +5° C. for 6 months.
[8] abbreviates: +5° C., after 9 months of storage.
Where [9] appears, read: sealed transparent glass vials at +5° C. for 3 months.
[10] abbreviates: RH=25-30%, T=18-20° C., 4 hours.
[11] abbreviates: +5° C., after 7 months of storage.

As to `CCN(C(=O)c1c(O)c2c(Cl)cccc2n(C)c1=O)c1ccccc1` [Batch 1, laquinimod meglumine], the Aqueous solubility in data set [1] was found to be 1330 mg/ml H2O; in data set [1] (depends on preparation method and form, listed as 1.1), 1330 mg/mL. The “Physical stability (physical change)” value in data set [2] (setting [6]) is “no sign of physical change”; in data set [2] (setting [7]), “No physical change was observed”. For the same compound, the Sample appearance result is “White flowable powder” in data set [2] (+5° C., 6 months); “White flowable powder” in data set [2] (+5° C., last row of Table 7.A, time printed 0 month); “White flowable powder” in data set [2] (+5° C., time 0 month). The Physical stability entry in data set [3] (RH=38%, open dish, 20 hours) is “No signs of aggregation or deliquescence were observed”.

On to `CCN(C(=O)c1c(O)c2c(Cl)cccc2n(C)c1=O)c1ccccc1` [Batch 3, laquinimod meglumine], for which the “Physical stability (physical change)” value is listed as “physical change was observed” in data set [2] (+5° C., after 5 months) and “Physical change was observed” in data set [2] (setting [7]). In addition, in data set [2] (+5° C., 6 months), the Sample appearance entry is reported as “lumped white powder, with signs of deliquescence”.

In the case of `CCN(C(=O)c1c(O)c2c(Cl)cccc2n(C)c1=O)c1ccccc1` [Batch 4, laquinimod meglumine], the Aqueous solubility is 1050 mg/ml H2O in data set [1]; 1050 mg/mL in data set [1] (depends on preparation method and form, listed as 1.4). The “Physical stability (physical change)” value in data set [2] (setting [6]) is recorded as “no sign of physical change”; in data set [2] (setting [7]), “No physical change was observed”. Further, in data set [2] (+5° C., 6 months), the Sample appearance result is recorded as “white powder with no signs of deliquescence”.

As for `CCN(C(=O)c1c(O)c2c(Cl)cccc2n(C)c1=O)c1ccccc1` [Batch 6, laquinimod choline hydroxide], the “Physical stability (physical change)” value in data set [2] (+5° C., after 5 months) was “developed color and deliquescence occurred”; in data set [2] (setting [7]), “Physical change was observed”. The Sample appearance result was “yellowish semi-solid with signs of deliquescence” in data set [2] (+5° C., 6 months) and “White glassy solid” in data set [2] (+5° C., time 0 month).

Take `CCN(C(=O)c1c(O)c2c(Cl)cccc2n(C)c1=O)c1ccccc1` [Batch 7, laquinimod choline hydroxide]: the Aqueous solubility in data set [1] is over 2100 mg/ml H2O; in data set [1] (depends on preparation method and form, listed as 2.3), >2100** mg/ml. For the same compound, the “Physical stability (physical change)” value in data set [2] (setting [8]) was “no sign of physical change”; in data set [2] (setting [7]), “No physical change was observed”. For the same compound, the Sample appearance result in data set [2] (+5° C., 5 months) is on record as “White powder”; in data set [2] (+5° C., 6 months), “white powder with no signs of deliquescence”; in data set [2] (+5° C., 9 months) it was “White powder”; in data set [2] (+5° C., time 0 month), “White powder”.

As to `CCN(C(=O)c1c(O)c2c(Cl)cccc2n(C)c1=O)c1ccccc1` [Batch 8, laquinimod choline hydroxide], the Aqueous solubility in data set [1] is 2000 mg/ml H2O; in data set [1] (depends on preparation method and form, listed as 2.4) it was >2000** mg/ml. Further, the figures for the “Physical stability (physical change)” value in data set [2] (setting [8]) and in data set [2] (setting [7]) were “no sign of physical change” and “No physical change was observed”, respectively. Besides, the Sample appearance result in data set [2] (+5° C., 5 months) is given as “White powder”; in data set [2] (+5° C., 6 months), “white powder with no signs of deliquescence”; in data set [2] (+5° C., 9 months) it was “White powder”; in data set [2] (+5° C., time 0 month), “White powder”.

`CCN(C(=O)c1c(O)c2c(Cl)cccc2n(C)c1=O)c1ccccc1` [Batch 9, laquinimod L-lysine]: the Aqueous solubility in data set [1] turned out to be 1176 mg/ml H2O; in data set [1] (depends on preparation method and form, listed as 3.1), 1176 mg/mL. The entries for the “Physical stability (physical change)” value in data set [2] (setting [8]) and in data set [2] (setting [7]) were “no sign of physical change” and “No physical change was observed”, respectively. Moreover, the Sample appearance entry in data set [2] (+5° C., 5 months) is listed as “White flowable powder”; in data set [2] (+5° C., 6 months), “white flowable powder”; in data set [2] (+5° C., 9 months) it was “White flowable powder”; in data set [2] (+5° C., time 0 month), “White flowable powder”.

In the case of `CCN(C(=O)c1c(O)c2c(Cl)cccc2n(C)c1=O)c1ccccc1` [Batch 10, laquinimod L-lysine], the Aqueous solubility in data set [1] was determined as 1000 mg/ml H2O; in data set [1] (depends on preparation method and form, listed as 3.2), 1000 mg/mL. Also, the “Physical stability (physical change)” value is given as “no sign of physical change” in data set [2] (setting [8]) and “No physical change was observed” in data set [2] (setting [7]). The Sample appearance entry in data set [2] (+5° C., 5 months) is given as “White flowable powder”; in data set [2] (+5° C., 6 months), “white powder”; in data set [2] (+5° C., 9 months), “White flowable powder”; in data set [2] (+5° C., time 0 month), “White flowable powder”.

As for `CCN(C(=O)c1c(O)c2c(Cl)cccc2n(C)c1=O)c1ccccc1` [Batch 12, laquinimod monoethanolamine], the Sample appearance result in data set [2] (+5° C., 3 months) is “yellowish aggregated powder”. In addition, in data set [2] (refrigerator, atmospheric air, overall statement), the “Physical stability (overall)” value is on record as “less stable”. Moreover, the “Physical stability (physical change)” value in data set [2] (setting [9]) is reported as “Physical change was observed”. For the same compound, the Physical stability entry in data set [3] (setting [10]) is recorded as “no change”; in data set [3] (RH=25-30%, T=18-20° C., 24 hours) it was “yellowish aggregated powder”.

As to `CCN(C(=O)c1c(O)c2c(Cl)cccc2n(C)c1=O)c1ccccc1` [Batch 13, laquinimod monoethanolamine], the Aqueous solubility in data set [1] stood at 1176 mg/ml H2O; in data set [1] (depends on preparation method and form, listed as 4.2) it was 1176 mg/mL. Moreover, the “Physical stability (physical change)” value in data set [2] (setting [11]) is listed as “slight aggregation was developed”. Further, the Sample appearance result in data set [2] (+5° C., 3 months) is “off-white powder”; in data set [2] (+5° C., time 0 month), “White powder”.

With `CCN(C(=O)c1c(O)c2c(Cl)cccc2n(C)c1=O)c1ccccc1` [Batch 14, laquinimod monoethanolamine], the “Physical stability (physical change)” value in data set [2] (setting [11]) is listed as “no sign of physical change”; in data set [2] (setting [9]), “No physical change was observed”. In data set [2] (+5° C., 3 months), the Sample appearance entry was “white powder”. Further, the Physical stability entry was “no change” in data set [3] (setting [10]) and “aggregated white powder” in data set [3] (RH=25-30%, T=18-20° C., 16 hours).

`CCN(C(=O)c1c(O)c2c(Cl)cccc2n(C)c1=O)c1ccccc1` [Batch 15, laquinimod monoethanolamine]: the Aqueous solubility was found to be 625 mg/ml H2O in data set [1]; 625 mg/mL in data set [1] (depends on preparation method and form, listed as 4.4). Further, the Sample appearance result in data set [2] (+5° C., 3 months) is recorded as “off-white powder”; in data set [2] (+5° C., time 0 month), “White powder”. For the same compound, the “Physical stability (physical change)” value in data set [2] (setting [9]) was “Small physical change was observed; also recorded: color change was developed”. For the same compound, the Physical stability result in data set [3] (RH=29-32%, T=18-20° C., 4 hrs) was “no change; remained white powder”; in data set [3] (RH=29-32%, T=18-20° C., 25 hrs), “no change; remained white powder”.

Regarding `NCCO.Oc1cc(Cl)ccc1Oc1ccc(Cl)cc1Cl` [Monoethanolamine salt of triclosan], the solubility in data set [4] (pH not given) is 5.84 mg/mL.

As to `CNCC(O)C(O)C(O)C(O)CO.Oc1cc(Cl)ccc1Oc1ccc(Cl)cc1Cl` [Triclosan meglumine salt], the solubility in data set [4] (pH not given) is 12.43 mg/mL.

Turning to `C[N+](C)(C)CCO.O=C([O-])c1ccccc1O` [choline salicylate salt, choline salicylate], the “solubility (in words)” value in data set [4] is “insoluble”.

For the compound `Cc1cnc(NC(=O)C2=C(O)c3ccccc3S(=O)(=O)N2C)s1` [free meloxicam, meloxicam], in data set [4] (pH 7.4), the solubility was 0.74 mg/mL (≈ 2110 µM).

As to `CN1C(C(=O)Nc2ccccn2)=C(O)c2ccccc2S1(=O)=O` [free piroxicam, piroxicam], the solubility in data set [4] (pH 7.4, unit not given) is on record as 0.17.

In the case of `CC(C)Cc1ccc(C(C)C(=O)[O-])cc1.[Na+]` (stereo not drawn) [ibuprofen sodium salt], the solubility in data set [4] (pH not given) was 100 mg/mL.

Turning to `CCN(C(=O)c1c(O)c2c(Cl)cccc2n(C)c1=O)c1ccccc1` [laquinimod L-lysine], the Aqueous solubility in data set [1] (depends on preparation method and form, listed as L-lysine laquinimod salt) was 1000 mg/mL and 1176 mg/mL.

In the case of `CCN(C(=O)c1c(O)c2c(Cl)cccc2n(C)c1=O)c1ccccc1` [laquinimod choline hydroxide], in data set [1] (laquinimod choline hydroxide salt vs laquinimod sodium), the “solubility relative to the sodium salt” value was “over 14 times”. Also, in data set [1] (depends on preparation method and form, listed as choline hydroxide salt of laquinimod), the Aqueous solubility was 2000 mg/mL and 2100 mg/mL.

In the case of `CCN(C(=O)c1c(O)c2c(Cl)cccc2n(C)c1=O)c1ccccc1` [laquinimod meglumine], the Aqueous solubility in data set [1] (depends on preparation method and form, listed as meglumine laquinimod salt) was 1050 mg/mL and 1330 mg/mL.

For `CCN(C(=O)c1c(O)c2c(Cl)cccc2n(C)c1=O)c1ccccc1` [laquinimod monoethanolamine], the Aqueous solubility in data set [1] (depends on preparation method and form, listed as Laquinimod monoethanoloamine salt) was 625 mg/mL and 1176 mg/mL.

Regarding `CCN(C(=O)c1c(O)c2c(Cl)cccc2n(C)c1=O)c1ccccc1` [laquinimod sodium, reference compound], the “solubility in water according to the USP” value in data set [1] (USP descriptive term) is listed as “freely soluble to soluble”. Also, in data set [5], the Aqueous solubility was 138 mg/mL.

In the case of `CNC[C@H](O)[C@@H](O)[C@H](O)[C@H](O)CO.Cc1cnc(NC(=O)C2=C(O)c3ccccc3S(=O)(=O)N2C)s1` [meglumine salt of meloxicam], the Aqueous solubility in data set [4] (pH 8.57) is 2.3 mg/mL.

Regarding `Cc1cnc(NC(=O)C2=C(O)c3ccccc3S(=O)(=O)N2C)s1` [meloxicam sodium salt], in data set [4] (pH 8.06), the Aqueous solubility was 2.0 mg/mL.

For the compound `CN1C(C(=O)Nc2ccccn2)=C(O)c2ccccc2S1(=O)=O.NCCO` [monoethanolamine salt of piroxicam], the solubility in data set [4] (pH 7.4) is 126.2 mg/mL.
